Test results published in BindingDB's records for patent US11912686 (Gilead Sciences, 2024).

Target: Lysophosphatidic acid receptor 1 (Homo sapiens, UniProt Q92633)
Assay: Calcium Mobilization Assay
Experimental: For agonist dose curves, cells were removed from the incubator 2 hours after dye loading and transferred to the FLIPR Tetra instrument (Molecular Devices, San Jose, CA). […] After dye loading, cells were removed from the incubator and 0.3 μL of 200× antagonist was added. Cells were incubated for 60 minutes at 37° C. Antagonist activity was measured on a FLIPR Tetra. Calcium mobilization was monitored for 3.5 minutes and 10 μL 6× EC80 LPA in HBSS, 20 mM HEPES, and 0.1% BSA was added to the cells 5 seconds into the assay. Signal amplitude (Maximum minus minimum) values were plotted against log10 of antagonist concentration using Dose Response T

Sequence of Lysophosphatidic acid receptor 1 (Q92633 whole entry): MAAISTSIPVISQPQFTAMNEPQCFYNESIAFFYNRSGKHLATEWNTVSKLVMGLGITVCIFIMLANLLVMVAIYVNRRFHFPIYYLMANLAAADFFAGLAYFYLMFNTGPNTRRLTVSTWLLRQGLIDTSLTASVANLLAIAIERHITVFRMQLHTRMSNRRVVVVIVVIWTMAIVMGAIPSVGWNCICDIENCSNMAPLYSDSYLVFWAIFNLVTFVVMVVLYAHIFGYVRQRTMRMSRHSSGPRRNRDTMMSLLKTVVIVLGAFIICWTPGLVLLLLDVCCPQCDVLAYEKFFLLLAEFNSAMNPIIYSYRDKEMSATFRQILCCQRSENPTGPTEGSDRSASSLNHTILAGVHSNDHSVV

C[C@@H](OC(=O)Nc1c(-c2ccc(NC(=O)[C@H]3C[C@@](F)(C#N)C3)cn2)nnn1C)c1cccnc1Cl [US11912686, Compound 185]
EC50: 1700 nM

C[C@@H](OC(=O)Nc1c(-c2ccc(NC(=O)N3CCOCC3)cn2)nnn1C)c1cccnc1Cl [US11912686, Compound 189]
EC50: 989 nM

CCNC(=O)Nc1ccc(-c2nnn(C)c2NC(=O)O[C@H](C)c2cccnc2Cl)cn1 [US11912686, Compound 4]
EC50: ≥ 10000 nM
